How the values were obtained:
A549 cells [1] = assay: Annexin V/PI staining, FACS; type: cell-based, human; conditions: A549, 10 μM and 20 μM, 24 hours
Procedure: (§1) Cancer cells were cultured in a 6-well plate for 24 hours along with 20 μM of ciclesonide for the case of breast cancer and 10 μM or 20 μM of ciclesonide or DMSO for the case of lung cancer. In accordance with the manufacturer's protocol, apoptotic cells were double-stained with PI and FITC-Annexin V. The sample was analyzed by flow cytometry (Accuri C6, BD, San Diego, Calif., USA).

MDA-MB-231 cells [2] = assay: Annexin V/PI staining, FACS; type: cell-based, human; conditions: MDA-MB-231, 20 μM, 24 hours
Procedure: as §1

A549 cells [3] = assay: Caspase-3/7 analysis (Caspase-Glo 3/7); type: cell-based, human; conditions: A549, 80 μM, 24 hours
Procedure: (§2) Breast cancer cells and lung cancer cells were treated with ciclesonide at different concentrations for 24 hours. Caspase-3/7 activity was measured in accordance with the manufacturer's protocol for the Caspase-Glo 3/7 kit (Promega, Wisconsin, USA). 100 μl of a Caspase-Glo 3/7 reagent was added to a 96-well plate where cancer cells were cultured. The plate was covered with a plate sealer, followed by culture at room temperature for 1 hour, and measured using a plate-reading luminometer, GloMax® Explorer (Promega, Wisconsin, USA).

MDA-MB-231 cells [4] = assay: Caspase-3/7 analysis (Caspase-Glo 3/7); type: cell-based, human; conditions: MDA-MB-231, 40 μM and 80 μM, 24 hours
Procedure: as §2

[5] = system: MCF-7 cell xenograft tumor; assay: Breast cancer xenograft model in NOD-SCID female nude mice; type: in vivo; conditions: MCF-7 xenograft, 10 mg/kg
Procedure: (§3) A total of 12 NOD-SCID (BALB/cSIc (nu/nu)) female nude mice producing breast cancer cells were divided into two groups. […] The volume of tumors of each control mouse was measured every three days and calculated by the following equation: (width×length^2)/2. The other six nude mice received neoadjuvant chemotherapy using a test drug by infusion at an optimum dose of 10 mg/kg/day.

MCF-7 cells = assay: CD44 and CD24 expression flow cytometric analysis; type: cell-based, human; conditions: 24 hours, FACS
Procedure: The expression of CD44 and CD24 in MCF-7 cells was measured by FACS analysis. After isolating and harvesting cells using 1× trypsin/EDTA, one million cells were suspended, labeled with an FITC-conjugated anti-human CD44 antibody and a PE-conjugated anti-human CD24 antibody (BD Pharmingen, San Diego, Calif., USA), and incubated at 4° C. for 30 minutes. The cells were then washed three times with 1× PBS and analyzed by flow cytometry (Accuri C6, BD, San Diego, Calif., USA).

STAT3 = assay: Electrophoretic mobility shift assay (EMSA) of mammosphere nuclear extract; type: cell-based, human; conditions: ciclesonide-treated mammosphere nuclear extract
IL-6 = assay: Human inflammatory cytokine assay (CBA), mammosphere culture solution; type: cell-based; conditions: MDA-MB-231 mammosphere culture solution
Procedure: (§4) Mixed capture beads were vortexed and 50 μl of beads were added to assay tubes. 50 μl of human inflammatory cytokine standard and the cultured tumorsphere solution were added to the assay tubes, and then mixed with a cytokine PE solution. After 3 hours, the mixed solution was washed and analyzed by flow cytometry (Accuri C6, BD, San Diego, Calif., USA).

IL-8 = assay: as above; type: cell-based; conditions: MDA-MB-231 mammosphere culture solution
Procedure: as §4

[6] = system: A549 cell xenograft tumor; assay: Lung cancer xenograft model in NOD-SCID male nude mice; type: in vivo; conditions: 10 mg/kg
Procedure: as §3, with “male” for “female”, “lung” for “breast”

Compound: CC(C)C(=O)OCC(=O)[C@@]12O[C@H](C3CCCCC3)O[C@@H]1C[C@H]1[C@@H]3CCC4=CC(=O)C=C[C@]4(C)[C@H]3[C@@H](O)C[C@@]12C [ciclesonide]
- number of apoptotic lung cancer cells (annexin V+) (A549 cells [1]): increased
- number of apoptotic breast cancer cells (annexin V+) (MDA-MB-231 cells [2]): increased
- caspase 3/7 activity (A549 cells [3]): induced
- caspase 3/7 activity (MDA-MB-231 cells [4]): induced
- tumor volume vs control not treated [5]: smaller
- tumor weight vs control not treated [5]: smaller
- subpopulation expressing CD44high/CD24low (MCF-7 cells): reduced
- binding between the biotin-labeled SIE probe and Stat3 (STAT3): inhibited
- production level of secreted IL-6 (IL-6): reduced
- production level of secreted IL-8 (IL-8): reduced
- tumor volume vs control not treated [6]: smaller
- tumor weight vs control not treated [6]: smaller
